Laboratory results as given in patent US20250170267A1, “ANTIBODY-DRUG CONJUGATE PRECURSOR AND INTERMEDIATE FOR SYNTHESIS THEREOF” (UBE Corporation, priority 2022, published 2025).
Numbered stars: 1 amine (or outer) side, 2 acyl side, 3 side chain; on linkers, the order of the positions; unused ones are H or OH. Square brackets hold non-standard residues; d marks the D form. Peptide text beside a SMILES is read from it. * marks the point of attachment. βAla(2S-maleimido) = O=C1C=CC(=O)N1[C@@H](CN[*:1])C(=O)[*:2]; Dolaproine = CO[C@@H]([C@@H]1CCCN1)[C@@H](C)C(=O)O; Propanoyl(3-maleimido) = O=C1C=CC(=O)N1CCC(=O)*; Dil = CC[C@H](C)[C@H](NC)[C@@H](CC(=O)O)OC; X3 = C[C@@H](N*)[C@@H](OP(=O)(O)O)c1ccccc1; Propanoyl(3-PO3H2) = O=C(CCP(=O)(O)O)*; PABC = O=C(OCc1ccc(N[*:1])cc1)[*:2]; X1 = C[C@@H](N*)[C@@H](O)c1ccccc1; hSer(lactone) = O=C1OCC[C@@H]1N*; Cit = NC(=O)NCCC[C@H](N)C(=O)O; PEG4 = NCCOCCOCCOCCOCCC(=O)O; NMeV = CN[C@H](C(=O)O)C(C)C

How the values were obtained:
[1] = Pharmacokinetic test (serum trastuzumab residual rate); format: in vivo; conditions: female BALB/c mouse, intravenous; 3 days vs 5 minutes after administration
Source text: After a prescribed time period, the blood was collected from the jugular vein or abdominal vein, and centrifuged to prepare a serum. The resulting serum was cryopreserved until the measurement.

human liver Cathepsin B = target: T1, human liver Cathepsin B (Homo sapiens, UniProt P07858); test: Metabolism test using human liver Cathepsin B; format: in vitro ADME; conditions: 37° C., 24 hours, released drug, LC-MS/MS
T1 construct: human liver Cathepsin B (manufactured by Sigma-Aldrich Co. LLC, Cat No. C8571 25 μg/vial); purchased Sigma-Aldrich Co. LLC C8571; host or cells: human liver
Experimental: To human liver Cathepsin B (manufactured by Sigma-Aldrich Co. LLC, Cat No. C8571 25 μg/vial)(corresponding to 400 Unit/mL)(5 μL), X10 Catabolic Buffer (manufactured by SEKISUI-Xenotech, LLC., K5200)(10 μL), 2.5 mM Bovine Serum Albumin (manufactured by FUJIFILM Wako Pure Chemical Corporation, Cat No. 012-15093)(5 μL), and distilled water (manufactured by FUJIFILM Wako Pure Chemical Corporation, for HPLC)(55 μL) was added 1.2 μM test compound (antibody-drug conjugate prepared in ADC Production examples)(25 μL) dissolved in PBS to prepare a reaction solution. After the reaction solution was incubated at 37° C. for 24 hours, “an antitumor drug molecule or an analog thereof, or a derivative thereof” released from the antibody-drug conjugate into the reaction solution was quantified by LC-MS/MS (high performance liquid chromatography/mass spectrometer system) under the following conditions. LC-MS/MS analysis conditions
(§1) LC: LC20 or LC30 HPLC system manufactured by Shimadzu Corporation
(§2) Column: Phenomenex Kinetex C18 (50×2.1 mm, 2.6 μm)
(§3) Column temperature: 40° C.
(§4) Mobile phase A: 0.1% aqueous solution of formic acid, Mobile phase B: 0.1% solution of formic acid in a mixture of 50% acetonitrile/methanol
(§5) Mode: Positive or Negative
(§6) The release rate (%) of drug was calculated by the following equation.

human liver lysosome = test: Metabolism test using human liver lysosomal fraction; format: in vitro ADME; conditions: 37° C., 24 hours, released drug, LC-MS/MS
Experimental: To a reaction composition solution (X10 Catabolic Buffer (manufactured by SEKISUI-Xenotech, LLC., K5200))(60 μL) in which human liver lysosome (manufactured by SEKISUI-Xenotech, LLC., Cat No. H610.L 2.5 mg/mL)(corresponding to 0.125 mg of protein) was suspended and distilled water (manufactured by FUJIFILM Wako Pure Chemical Corporation, for HPLC)(10 μL) was added 1.2 μM test compound (antibody-drug conjugate produced in ADC Production examples)(25 μL) dissolved in PBS to prepare a reaction solution. After the reaction solution was incubated at 37° C. for 24 hours, “an antitumor drug molecule or an analog thereof, or a derivative thereof” released from the antibody-drug conjugate into the reaction solution was quantified by LC-MS/MS (high performance liquid chromatography/mass spectrometer system) under the following conditions. LC-MS/MS analysis conditions
as §1, §2, §3, §4, §5, §6

[2] = Retention time in HPLC (index of hydrophilicity); format: physicochemical; conditions: Table 5 (MMAE-type precursors); BEH C18, 0.1% formic acid/acetonitrile gradient, 40° C.
Experimental: As an index of hydrophilicity of the Examples, the retention time (RT) in HPLC analysis was measured, and compared.
Device: LCMS2020 system Shimadzu Corporation
Column: Acquity UPLC (registered trademark) BEH C18 (2.1×50 mm, 1.7 μm)_Waters
Eluent: Solution A: 0.1% aqueous solution of formic acid, Solution B: 0.1% solution of formic acid in acetonitrile

human topoisomerase I = target: T2, human topoisomerase I (Homo sapiens, UniProt P11387); test: Topoisomerase I activity inhibition test; format: biochemical; conditions: supercoiled plasmid DNA, 37° C., 60 minutes
T2 construct: purchased Sigma T9069
T2 sequence (P11387 1-765): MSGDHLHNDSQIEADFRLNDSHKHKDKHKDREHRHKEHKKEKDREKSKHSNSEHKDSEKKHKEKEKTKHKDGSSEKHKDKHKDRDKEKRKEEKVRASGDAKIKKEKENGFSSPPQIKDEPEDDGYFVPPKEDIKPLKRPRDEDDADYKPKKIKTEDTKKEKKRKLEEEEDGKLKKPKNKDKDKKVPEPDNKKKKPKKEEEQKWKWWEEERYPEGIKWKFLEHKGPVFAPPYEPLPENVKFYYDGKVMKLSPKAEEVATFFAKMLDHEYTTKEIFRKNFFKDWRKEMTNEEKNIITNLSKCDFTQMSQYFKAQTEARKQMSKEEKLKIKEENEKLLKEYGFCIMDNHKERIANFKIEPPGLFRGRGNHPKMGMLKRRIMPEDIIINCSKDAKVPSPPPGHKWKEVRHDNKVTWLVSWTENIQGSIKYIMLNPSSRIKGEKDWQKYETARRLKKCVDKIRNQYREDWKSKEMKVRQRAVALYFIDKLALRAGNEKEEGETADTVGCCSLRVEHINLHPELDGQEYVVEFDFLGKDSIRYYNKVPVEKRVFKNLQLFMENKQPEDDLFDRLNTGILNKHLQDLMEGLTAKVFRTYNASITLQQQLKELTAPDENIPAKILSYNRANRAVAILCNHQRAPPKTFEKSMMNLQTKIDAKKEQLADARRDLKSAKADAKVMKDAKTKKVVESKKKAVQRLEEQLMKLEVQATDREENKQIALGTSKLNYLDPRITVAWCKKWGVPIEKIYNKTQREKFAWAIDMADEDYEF
Experimental: For measuring topoisomerase I activity inhibitory actions, Human DNA Topoisomerase I Assay Kit (manufactured by ProFoldin, HRA100K) was used. A human topoisomerase I (manufactured by Sigma, T9069) was added to a Tris-HCl buffer containing KCl, DTT, MgCl2, EDTA, and BSA to prepare a reaction solution. The reaction solution (35.2 μL) and a test compound solution (4.4 μL) prepared by an aqueous solution containing 10% DMSO were mixed in a 1.5 mL microtube, and the resulting mixture was reacted at 37° C. for 10 minutes. Subsequently, a supercoiled plasmid DNA (4.4 μL) was added thereto, and the resulting mixture was reacted at 37° C. for 60 minutes. After the reaction, the solution was added to a 96 well plate (manufactured by Corning Inc., 3904) at 40 μL/well, and a Dye H19 solution (250 μL) diluted 10 times with the buffer included with the kit was added thereto. A microplate reader (Infinite F500, manufactured by TECAN) was used to measure the fluorescence intensity (excitation wavelength: 485 nm, detection wavelength: 535 nm) of each well.
The topoisomerase I activity inhibition rate (%) was calculated by the following equation.

Compound	Retention time in HPLC measurement [2] [min]	IC50 (human topoisomerase I) [µM]	also measured
CC[C@H](C)[C@@H]([C@@H](CC(=O)N1CCC[C@H]1[C@H](OC)[C@@H](C)C(=O)N[C@H](C)[C@@H](O)c1ccccc1)OC)N(C)C(=O)[C@@H](NC(=O)[C@H](C(C)C)N(C)C(=O)OCc1ccc(NC(=O)[C@H](CCCNC(N)=O)NC(=O)[C@@H](NC(=O)[C@H](CC(=O)N[C@H]2CCOC2=O)NC(=O)CCOCCOCCOCCOCCNC(=O)CCN2C(=O)C=CC2=O)C(C)C)cc1)C(C)C [Example 1] ({Propanoyl(3-maleimido)-PEG4}-D(hSer(lactone))V[Cit][PABC][NMeV]V[Dil][Dolaproine]-X1)	1.12	–	Serum trastuzumab residual rate after 3 days from administration (%) [1]: 35%; Release rate (%) of drug from ADC (human liver Cathepsin B): 71%; Release rate (%) of drug from ADC (human liver lysosome): 68%
CC[C@H](C)[C@@H]([C@@H](CC(=O)N1CCC[C@H]1[C@H](OC)[C@@H](C)C(=O)N[C@H](C)[C@@H](OP(=O)(O)OCc1ccc(NC(=O)[C@H](CCCNC(N)=O)NC(=O)[C@@H](NC(=O)[C@H](CC(=O)N[C@H]2CCOC2=O)NC(=O)CCOCCOCCOCCOCCNC(=O)[C@H](CNC(=O)CCP(=O)(O)O)N2C(=O)C=CC2=O)C(C)C)cc1)c1ccccc1)OC)N(C)C(=O)[C@@H](NC(=O)[C@H](C(C)C)N(C)C)C(C)C [Example 3]	0.70	–	–
CC[C@H](C)[C@@H]([C@@H](CC(=O)N1CCC[C@H]1[C@H](OC)[C@@H](C)C(=O)N[C@H](C)[C@@H](OP(=O)(O)O)c1ccccc1)OC)N(C)C(=O)[C@@H](NC(=O)[C@H](C(C)C)N(C)C(=O)OCc1ccc(NC(=O)[C@H](CCCNC(N)=O)NC(=O)[C@@H](NC(=O)[C@H](CC(=O)N[C@H]2CCOC2=O)NC(=O)CCOCCOCCOCCOCCNC(=O)CCN2C(=O)C=CC2=O)C(C)C)cc1)C(C)C [Example 2] ({Propanoyl(3-maleimido)-PEG4}-D(hSer(lactone))V[Cit][PABC][NMeV]V[Dil][Dolaproine]-X3)	0.96	–	–
CC[C@H](C)[C@@H]([C@@H](CC(=O)N1CCC[C@H]1[C@H](OC)[C@@H](C)C(=O)N[C@H](C)[C@@H](O)c1ccccc1)OC)N(C)C(=O)[C@@H](NC(=O)[C@H](C(C)C)N(C)C(=O)OCc1ccc(NC(=O)[C@H](CCCNC(N)=O)NC(=O)[C@@H](NC(=O)[C@H](CC(=O)N[C@H]2CCOC2=O)NC(=O)CCOCCOCCOCCOCCNC(=O)[C@H](CNC(=O)CCP(=O)(O)O)N2C(=O)C=CC2=O)C(C)C)cc1)C(C)C [Example 8] ({Propanoyl(3-PO3H2)}-[βAla(2S-maleimido)][PEG4]D(hSer(lactone))V[Cit][PABC][NMeV]V[Dil][Dolaproine]-X1)	1.03	–	Release rate (%) of drug from ADC (human liver Cathepsin B): 41%; Release rate (%) of drug from ADC (human liver lysosome): 60%
CC[C@@]1(O)C(=O)OCc2c1cc1n(c2=O)Cc2c-1nc1cc(F)c(C)c3c1c2[C@@H](NC(=O)c1cccc(N)c1)CC3 [Example U-004]	–	≤ 15	–
CC[C@@]1(O)C(=O)OCc2c1cc1n(c2=O)Cc2c-1nc1cc(F)c(C)c3c1c2[C@@H](NC(=O)Cc1ccc(N)cc1)CC3 [Example U-007]	–	≤ 15	–
CC[C@@]1(O)C(=O)OCc2c1cc1n(c2=O)Cc2c-1nc1cc(F)c(C)c3c1c2[C@@H](NC(=O)CNC)CC3 [Example U-003]	–	≤ 15	–
